Measured values taken from patent publication US4322416A, “10-Alkynyl steroids” (Merrell Dow Pharmaceuticals Inc., priority 1981, dated 1982).
Entries after “also recorded” stand apart in the source; their conditions may differ.

Experiments:
[1] = system: estrogen production required for ovulation; settings: rats; cited from earlier work
[2] = system: aromatase; settings: microsomal enzyme preparations from human placenta; cited from earlier work
[3] = target: T1, aromatase (microsomal fraction from human placenta) (Homo sapiens, UniProt P11511); experiment: biochemical; format: biochemical
T1 construct: microsomal fraction isolated from human placenta; from tissue; host or cells: human placenta, microsomal fraction
T1 sequence (P11511 1-503): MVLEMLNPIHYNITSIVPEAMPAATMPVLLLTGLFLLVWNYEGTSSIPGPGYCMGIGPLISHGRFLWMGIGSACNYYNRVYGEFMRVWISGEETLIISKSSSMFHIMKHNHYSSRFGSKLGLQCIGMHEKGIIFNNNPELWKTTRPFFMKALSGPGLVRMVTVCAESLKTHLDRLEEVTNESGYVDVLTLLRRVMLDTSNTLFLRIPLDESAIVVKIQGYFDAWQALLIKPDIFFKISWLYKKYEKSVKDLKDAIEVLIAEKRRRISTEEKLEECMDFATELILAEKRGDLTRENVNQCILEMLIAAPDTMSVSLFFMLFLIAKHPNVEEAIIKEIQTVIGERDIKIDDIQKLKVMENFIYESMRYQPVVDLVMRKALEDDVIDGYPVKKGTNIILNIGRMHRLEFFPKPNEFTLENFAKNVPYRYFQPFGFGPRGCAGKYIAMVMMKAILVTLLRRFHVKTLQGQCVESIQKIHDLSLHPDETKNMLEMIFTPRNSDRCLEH
Procedure: (§1) The aromatase inhibitory action of the compounds of the invention can be determined using a radioenzymatic assay. An aromatase enzyme preparation from the microsomal fraction isolated from human placenta is employed.
Assay buffer contains 100 mM KCl, 10 mM KH2 PO4, 10 mM dithiothreitol and 1 mM EDTA at pH 8.0. […] Aromatase requires NADPH as a cofactor, therefore a generating system is included which uses 0.5 mM NADP^+, 2.5 mM glucose-6-phosphate, and 1.0 unit/ml of glucose-6-phosphate dehydrogenase in assay buffer. The enzyme reaction is initiated by the addition of 700 μl of aromatase preparation, usually 50 μg microsomal protein per ml of assay buffer. These preparations are mixed using a vortex mixer and incubated for 30 minutes at 37° C. with 95% O2 :5% CO2 gas phase in a Dubinoff shaking incubator.
The enzymatic reaction is terminated by the addition of CHCl3. After vortexing 20 seconds, aqueous/organic emulsions are dispersed and phase separation achieved following centrifugation at 600×g for 10 minutes. Duplicate 500 μl samples of the upper aqueous phase of each incubation sample are added to 10×75 mm culture tubes. […] The radioactivity of ^3 H2 O resulting from liberated 1β and 2β tritium atoms during the enzymatic reaction is determined by counting for 10 minutes in a liquid scintillation counter. […]

[4] = target: T2, aromatase (aromatase preparation; microsomal protein) (Homo sapiens, UniProt P11511); experiment: biochemical
T2 sequence (P11511 1-503): T1 sequence (P11511 1-503)
Procedure: as §1
In this assay, the inhibitor is preincubated with enzyme prior to assaying for enzyme activity in the presence of high substrate levels.
In the time-dependent assay, an amount of the enzyme inhibitor in 100 μl of the assay buffer described above which will provide assay concentrations which are approximately one and ten times the IC50 values are added to 35 ml centrifuge tubes containing 600 μl of the NADPH generating system described above. The preincubation is started by the addition of 700 μl of aromatase preparation, usually 500-800 μg of microsomal protein per ml of assay buffer. These preparations are mixed using a vortex mixer and incubated for 0, 10, 20 or 40 minutes at 25° C. […] Following vortexing, the enzyme incubation is continued for 10 minutes before being terminated by the addition of chloroform. The amount of radioactivity in the aqueous fraction is determined by scintillation procedures. […] Therefore, the present enzyme inhibition is expressed as a percentage: [100 percent minus percent enzyme activity of inhibitor].
Compounds which show time-dependent inhibition are then assayed to establish the inhibition constant, Ki, which is the apparent dissociation constant for the enzyme-inhibitor complex. This determination requires measurements at initial velocities of enzyme reaction. […] The enzyme half-life (t1/2) at these different inhibitor concentrations ([In]) is used to determine the Ki by the linear regression equation of the t1/2 vs. 1/[In]. The Ki is equivalent to the inhibitor concentration when t1/2 is equal to zero.

[5] = system: implantation in mated rats; settings: cited from earlier work

For `CC(=O)OC1=C2CC[C@@H]3[C@H](CC[C@]4(C)C(=O)CC[C@@H]34)[C@@]2(C)CCC1=O` [4-acetoxy-androst-4-ene-3,17-dione], the “preventing estrogen production required for ovulation” value [1] is given as “effective in preventing estrogen production required for ovulation in rats” and the “identified as aromatase inhibitor” value [2] is given as “identified as aromatase inhibitors”.

For `C[C@]12CCC(=O)C(O)=C1CC[C@@H]1[C@@H]2CC[C@]2(C)C(=O)CC[C@@H]12` [4-hydroxy-androst-4-ene-3,17-dione], the “identified as aromatase inhibitor” value [2] is listed as “identified as aromatase inhibitors”.

For `C#CC[C@]12CCC(=O)C=C1CC[C@@H]1[C@@H]2CC[C@]2(C)C(=O)CC[C@@H]12` [10-(2-propynyl)estr-4-ene-3,17-dione], the IC50 [3] was 4.2 nM, the “enzyme affinity compared with known inhibitors” value [3] was “greater enzyme affinity than other known inhibitors; also recorded: superior to known aromatase inhibitors” and the Ki [4] was 8.9 nM. For the same molecule, the “affinity for the enzyme site relative to that of the natural substrate testosterone” value ([4]; Ki vs. Km of testosterone) was “five times greater” and the “irreversible binding to / irreversible inhibition of aromatase” value ([4]; time-dependent inhibition, in words) was “irreversibly bound to the enzyme”.

For `C[C@]12C=CC(=O)C=C1C=C[C@@H]1[C@@H]2CC[C@]2(C)C(=O)CC[C@@H]12` [Androsta-1,4,6-triene-3,17-dione], the preventing implantation [5] is given as “effective in preventing implantation in mated rats” and the “identified as aromatase inhibitor” value [2] is given as “identified as aromatase inhibitors”.
